“And” between values parts separate entries of the source, which are not always exact repeats. Equal entries are not always repeated.
O
Details | viscosity
293.15 K, 100 kPa | 0.994 mPa·s and 0.991 mPa·s
295 K, 101.3 kPa | 0.975 mPa·s
295.15 K, 101 kPa | 0.955 mPa·s and 0.9548 mPa·s
295.65 K, 100.9 kPa | 0.9432 mPa·s
297.15 K, 101 kPa | 0.9111 mPa·s
298.15 K, 100 kPa | 0.884 mPa·s and 0.901 mPa·s
298.15 K, 101.3 kPa | 0.876 mPa·s
298.15 K, 101.33 kPa | 0.918 mPa·s
299.15 K, 101 kPa | 0.8705 mPa·s
300.15 K, 101 kPa | 0.797 mPa·s
300.65 K, 100.9 kPa | 0.8417 mPa·s
301.15 K, 101 kPa | 0.8327 mPa·s
302.15 K, 101 kPa | 0.917 mPa·s
303.15 K, 100 kPa | 0.796 mPa·s and 0.81 mPa·s
305.15 K, 101 kPa | 0.816 mPa·s and 0.717 mPa·s
305.65 K, 100.9 kPa | 0.7567 mPa·s
307.15 K, 101 kPa | 0.734 mPa·s
308.15 K, 101.3 kPa | 0.716 mPa·s and 0.708 mPa·s and 0.717 mPa·s
309.15 K, 101 kPa | 0.7052 mPa·s
310.65 K, 100.9 kPa | 0.6848 mPa·s
311.15 K, 101 kPa | 0.6833 mPa·s and 0.6783 mPa·s
313.15 K, 100 kPa | 0.662 mPa·s and 0.6579 mPa·s and 0.66 mPa·s
313.15 K, 101.33 kPa | 0.5631 mPa·s and 0.658 mPa·s
315.15 K, 101 kPa | 0.6291 mPa·s
316.15 K, 101 kPa | 0.6189 mPa·s
317.15 K, 101 kPa | 0.6067 mPa·s
318.15 K, 101.3 kPa | 0.594 mPa·s and 0.589 mPa·s and 0.592 mPa·s
318.15 K, 101.33 kPa | 0.6 mPa·s and 0.6 mPa·s
319.15 K, 101 kPa | 0.5856 mPa·s
320.15 K, 101 kPa | 0.5748 mPa·s
320.65 K, 100.9 kPa | 0.5706 mPa·s
321.15 K, 101 kPa | 0.5656 mPa·s
322.9 K, 101 kPa | 0.5516 mPa·s
323.15 K, 100 kPa | 0.567 mPa·s and 0.566 mPa·s
323.15 K, 101 kPa | 0.56 mPa·s and 0.5829 mPa·s and 0.5538 mPa·s

O=C1CCCO1
viscosity
Details | 293.15 K | 298.15 K | 303.15 K | 308.15 K | 313.15 K | 318.15 K | 323.15 K
100 kPa | 1.92 mPa·s | 1.73 mPa·s and 1.73 mPa·s (3×) | 1.63 mPa·s and 1.63 mPa·s (3×) and 1.59 mPa·s | 1.52 mPa·s and 1.52 mPa·s (3×) | 1.42 mPa·s and 1.42 mPa·s (3×) | 1.35 mPa·s and 1.35 mPa·s (3×) | 1.3 mPa·s and 1.3 mPa·s (3×)
101 kPa | – | 1.74 mPa·s and 1.764 mPa·s | – | 1.477 mPa·s and 1.522 mPa·s and 1.429 mPa·s | – | 1.286 mPa·s and 1.33 mPa·s and 1.234 mPa·s | 1.206 mPa·s and 1.22 mPa·s
101.3 kPa | – | 1.75 mPa·s | – | – | – | – | –
101.33 kPa | 1.883 mPa·s | 1.738 mPa·s and 1.745 mPa·s | 1.765 mPa·s and 1.61 mPa·s and 1.612 mPa·s | 1.498 mPa·s | 1.39 mPa·s | – | 1.213 mPa·s

OCC(F)(F)F
Details | viscosity
293.15 K, 101 kPa | 2.11 mPa·s and 2.108 mPa·s
298 K, 101.3 kPa | 1.737 mPa·s
298.15 K, 100 kPa | 1.744 mPa·s
298.15 K, 101 kPa | 1.84 mPa·s and 1.722 mPa·s
298.15 K, 101.33 kPa | 1.73 mPa·s
303 K, 101.3 kPa | 1.357 mPa·s
303.15 K, 101 kPa | 1.62 mPa·s
303.15 K, 101.33 kPa | 1.53 mPa·s
308 K, 101.3 kPa | 1.201 mPa·s
308.15 K, 101 kPa | 1.43 mPa·s
308.15 K, 101.33 kPa | 1.35 mPa·s
313 K, 101.3 kPa | 1.054 mPa·s
313.15 K, 100 kPa | 1.23 mPa·s
313.15 K, 101 kPa | 1.27 mPa·s and 1.203 mPa·s
318.15 K, 100 kPa | 1.1 mPa·s
318.15 K, 101 kPa | 1.13 mPa·s
318.15 K, 101.33 kPa | 1.09 mPa·s
323.15 K, 100 kPa | 0.99 mPa·s and 0.948 mPa·s
323.15 K, 101 kPa | 1.02 mPa·s and 0.963 mPa·s

— the CheMixHub viscosity set
